Key:
Type in all cases: in vivo
rice [1] = assay: Safening effect against butachlor injury to rice, safening agent and herbicide incorporated in soil (Example 15, Table I); parameters: key: herbicide-alone + safener-alone effect (max 100) minus combined effect; conditions: safening agent 8.96 kg/h, ~21 days
Experimental: (§1) A good grade of top soil is placed in a container and compacted to a depth of approximately 1.27 cm. from the top of said container. A predetermined number of rice seeds to be tested are placed on top of the soil. A quantity of soil sufficient to substantially fill the container is measured and placed in a second container. A measured quantity of the safening agent dispersed or dissolved in a suitable carrier is applied to the soil in the second container. A measured quantity of butachlor dispersed or dissolved in a suitable carrier is then sprayed on the soil already treated with the safening agent. The soil containing the safening agent and herbicide is thoroughly mixed. This mixing is sometimes referred to as incorporation of the herbicide and safening agent into the soil. The mixing or incorporation provides a substantially uniform distribution of the safening agent and herbicide throughout the soil. The seeds are covered with the soil containing the safening agent and herbicide and the pans are leveled. The pans are then placed on a sand bench in the greenhouse and watered from below as needed. The plants are observed at the end of approximately 21 days and the results in terms of percent inhibition of each seed lot are recorded. For each test series a pan of plants is also prepared containing no herbicide and no safening agent as a control. Additionally, for each test, a pan of plants is prepared with soil covering the seed containing no herbicide and only the measured amount of safening agent being incorporated into the soil covering the seeds to ascertain any herbicidal effect of the safening agent alone. For each series of tests the herbicidal effect of the herbicide is observed from pans of plants treated with the same quantity of herbicide alone. The "safening effect" is determined by adding the hericidal effect of the herbicide when applied alone to the herbicidal effect of the safening agent when applied alone (in no instance, however, will this sum be greater than 100) and substracting from that the herbicidal effect obtained when the herbicide and safening agent are incorporated into the soil as discussed above.
Table I summarizes the results obtained when the compounds of the invention were tested in accordance with the procedure of Example 15.

rice [2] = assay: Safening effect against butachlor injury to pre-soaked rice, soil surface application, flooded pots (Example 16, Table II); parameters: key: herbicide injury alone + safener injury alone (max 100) minus combined injury; conditions: ~21 days, mean of two replicates
Experimental: as §1
A good grade of top soil is placed in a plastic pot. A measured quantity of the safening agent dispersed or dissolved in a suitable carrier is sprayed on the soil surface. A measured quantity of butachlor herbicide dissolved in a solvent is sprayed on the soil surface. Presoaked rice is seeded into the pots that were previously flooded with water and the water level lowered below the soil surface for one week. The pots are flooded at least up to the soil surface for the duration of the test. The plants are observed at the end of approximately 21 days and the results in terms of the percent inhibition of rice is recorded. As in Example 15, for each test pots are prepared containing soil treated only with butachlor. For each test, pots are also prepared containing soil treated only with the safening agent. Pots are also prepared in which the soil is not treated with either the herbicide or the safening agent. The safening effect is determined in accordance with Example 15.
Table II summarizes the results obtained when the compounds of the invention were tested in accordance with the procedure of Example 16.

rice [3] = assay: Inhibition of rice by butachlor and safening agent sprayed on soil surface, flooded pots (Example 17, Table III); conditions: ~21 days, mean of two replicates
Experimental: (§2) 5.08 cm. of a good grade of top soil is placed in a 7.62 cm. deep plastic pot. A predetermined number of barnyard grass seeds are applied to the soil surface. A measured quantity of the safening agent dispersed or dissolved in a suitable carrier is sprayed on the soil surface. A measured quantity of butachlor herbicide dissolved in a solvent is sprayed on the soil surface. Pre-soaked rice is seeded into the pots that were previously flooded with water. The water level is lowered below the soil surface for one week to allow barnyard grass to emerge. The pots are flooded just above the soil surface for the duration of the test. The plants are observed at the end of approximately 21 days and the results in terms of percent inhibition recorded. For each test, pots are prepared containing soil treated only with butachlor. For each test, pots are prepared containing soil treated only with the safening agent. Pots are also prepared containing untreated soil.

Barnyard Grass [4] = assay: Inhibition of barnyard grass by butachlor and safening agent sprayed on soil surface, flooded pots (Example 17, Table III); conditions: ~21 days, mean of two replicates
Experimental: as §2

rice [5] = assay: Inhibition of rice, safening agent and butachlor applied to soil surface, flooded pots (Example 18, Table IV); conditions: ~21 days, mean of two replicates
Experimental: as §2, with “safening agent and butachlor dispersed or” for “safening agent dispersed or”, “carrier is applied to the soil” for “carrier is sprayed on the soil surface. A measured quantity of butachlor herbicide dissolved in a solvent is sprayed on the soil”, “for one week. The pots” for “for one week to allow barnyard grass to emerge. The pots”, “also prepared with untreated soil.” for “also prepared containing untreated soil.”

Barnyard Grass [6] = assay: Inhibition of barnyard grass, safening agent and butachlor applied to soil surface, flooded pots (Example 18, Table IV); conditions: ~21 days, mean of two replicates
Experimental: as §2, with “safening agent and butachlor dispersed or” for “safening agent dispersed or”, “carrier is applied to the soil” for “carrier is sprayed on the soil surface. A measured quantity of butachlor herbicide dissolved in a solvent is sprayed on the soil”, “for one week. The pots” for “for one week to allow barnyard grass to emerge. The pots”, “also prepared with untreated soil.” for “also prepared containing untreated soil.”

Barnyard Grass [7] = assay: Percent inhibition of barnyard grass, mixture incorporated in soil cover layer (Example 19, Table V); conditions: ~21 days
Source text: (§3) 5.08 cm. of a good grade of top soil is placed in a 7.62 cm. deep plastic pot. A predetermined number of weed seeds and rice seeds are applied to the soil surface. Butachlor and ethyl 2-chloro-4-phenyl-5-thiazolecarboxylate are applied to a soil cover layer as a mixture and incorporated by shaking the treated soil cover layer in a plastic bag. The cover layers were then placed on the pre-seeded pots. The plants are observed at the end of approximately 21 days and the results in terms of percent inhibition recorded. For each test, pots are prepared containing soil treated only with butachlor. For each test, pots are prepared containing soil treated only with the safening agent. Pots are also prepared with untreated soil.

Crabgrass = assay: Percent inhibition of crabgrass, mixture incorporated in soil cover layer (Example 19, Table V); conditions: ~21 days
Source text: as §3

Panicum = assay: Percent inhibition of panicum, mixture incorporated in soil cover layer (Example 19, Table V); conditions: ~21 days
Source text: as §3

Foxtail = assay: Percent inhibition of foxtail, mixture incorporated in soil cover layer (Example 19, Table V); conditions: ~21 days
Source text: as §3

rice [8] = assay: Percent inhibition of rice, mixture incorporated in soil cover layer (Example 19, Table V); conditions: ~21 days
Source text: as §3

[9] = safening agent 0.07 kg/h + butachlor 0.07 kg/h
[10] = safening agent 0.07 kg/h + butachlor 0.28 kg/h
[11] = safening agent 0.07 kg/h + butachlor 1.12 kg/h
[12] = safening agent 0.28 kg/h + butachlor 0.07 kg/h
[13] = safening agent 0.28 kg/h + butachlor 0.28 kg/h
[14] = safening agent 0.28 kg/h + butachlor 1.12 kg/h
[15] = safening agent 1.12 kg/h + butachlor 0.07 kg/h
[16] = safening agent 1.12 kg/h + butachlor 0.28 kg/h
[17] = safening agent 1.12 kg/h + butachlor 1.12 kg/h
[18] = safening agent 8.96 kg/h + butachlor 2.24 kg/h
[19] = safening agent 8.96 kg/h + butachlor 4.48 kg/h
[20] = safening agent 8.96 kg/h + butachlor 8.96 kg/h

CCOC(=O)c1sc(Cl)nc1-c1ccc(Cl)cc1 [Example 4, Ethyl 2-Chloro-4-p-Chlorophenyl-5-Thiazolecarboxylate]
0%: Inhibition, Rice (rice [3]; [9]) | Inhibition, Rice (rice [3]; [10]) | Inhibition, Rice (rice [3]; [12]) | Inhibition, Rice (rice [3]; [13]) | Inhibition, Rice (rice [3]; [15]) | Inhibition, Rice (rice [3]; [16]) | Inhibition, Rice (rice [3]; safening agent alone 0.07 kg/h) | Inhibition, Rice (rice [3]; safening agent alone 0.28 kg/h) | Inhibition, Rice (rice [3]; safening agent alone 1.12 kg/h) | Inhibition, Barnyard Grass (Barnyard Grass [4]; safening agent alone 0.07 kg/h) | Inhibition, Barnyard Grass (Barnyard Grass [4]; safening agent alone 0.28 kg/h) | Inhibition, Barnyard Grass (Barnyard Grass [4]; safening agent alone 1.12 kg/h) | % Inhibition, Rice (rice [5]; [12]) | % Inhibition, Rice (rice [5]; [15]) | % Inhibition, Rice (rice [5]; safening agent alone 0.07 kg/h) | % Inhibition, Rice (rice [5]; safening agent alone 0.28 kg/h) | % Inhibition, Rice (rice [5]; safening agent alone 1.12 kg/h) | % Inhibition, Barnyard Grass (Barnyard Grass [6]; safening agent alone 0.07 kg/h) | % Inhibition, Barnyard Grass (Barnyard Grass [6]; safening agent alone 0.28 kg/h) | % Inhibition, Barnyard Grass (Barnyard Grass [6]; safening agent alone 1.12 kg/h)
32: Safening Effect (rice [2]; safening agent 0.56 kg/h, butachlor 1.12 kg/h)
88%: % Inhibition, Rice (rice [5]; [11]) | % Inhibition, Rice (rice [5]; [17])
5%: % Inhibition, Rice (rice [5]; [9])
85%: % Inhibition, Barnyard Grass (Barnyard Grass [6]; [12]) | % Inhibition, Barnyard Grass (Barnyard Grass [6]; [15])
78%: Inhibition, Rice (rice [3]; [11])
30: Safening Effect (rice [2]; safening agent 0.56 kg/h, butachlor 0.07 kg/h)
90%: % Inhibition, Barnyard Grass (Barnyard Grass [6]; [9])
70: Safening Effect (rice [2]; safening agent 0.56 kg/h, butachlor 0.28 kg/h)
63%: % Inhibition, Rice (rice [5]; [10])
30%: % Inhibition, Rice (rice [5]; [13]) | % Inhibition, Rice (rice [5]; [16])
100%: Inhibition, Barnyard Grass (Barnyard Grass [4]; [10]) | Inhibition, Barnyard Grass (Barnyard Grass [4]; [11]) | Inhibition, Barnyard Grass (Barnyard Grass [4]; [14]) | Inhibition, Barnyard Grass (Barnyard Grass [4]; [17]) | % Inhibition, Barnyard Grass (Barnyard Grass [6]; [10]) | % Inhibition, Barnyard Grass (Barnyard Grass [6]; [11]) | % Inhibition, Barnyard Grass (Barnyard Grass [6]; [13]) | % Inhibition, Barnyard Grass (Barnyard Grass [6]; [14]) | % Inhibition, Barnyard Grass (Barnyard Grass [6]; [16]) | % Inhibition, Barnyard Grass (Barnyard Grass [6]; [17])
40%: Inhibition, Rice (rice [3]; [14]) | % Inhibition, Rice (rice [5]; [14])
28%: Inhibition, Rice (rice [3]; [17])
99%: Inhibition, Barnyard Grass (Barnyard Grass [4]; [9]) | Inhibition, Barnyard Grass (Barnyard Grass [4]; [12]) | Inhibition, Barnyard Grass (Barnyard Grass [4]; [13]) | Inhibition, Barnyard Grass (Barnyard Grass [4]; [15]) | Inhibition, Barnyard Grass (Barnyard Grass [4]; [16])
85: Safening Effect (rice [1]; butachlor 6.72 kg/h)

CCOC(=O)c1sc(Cl)nc1-c1ccccc1 [Example 1, Ethyl 2-Chloro-4-Phenyl-5-Thiazolecarboxylate]
75: Safening Effect (rice [1]; butachlor 4.48 kg/h)
43%: Percent Inhibition, Rice (rice [8]; [19])
45%: Percent Inhibition, Rice (rice [8]; [20])
0%: Percent Inhibition, Barnyard Grass (Barnyard Grass [7]; safening agent alone 8.96 kg/h) | Percent Inhibition, Crabgrass (Crabgrass; safening agent alone 8.96 kg/h) | Percent Inhibition, Panicum (Panicum; safening agent alone 8.96 kg/h) | Percent Inhibition, Foxtail (Foxtail; safening agent alone 8.96 kg/h) | Percent Inhibition, Rice (rice [8]; safening agent alone 8.96 kg/h)
99: Safening Effect (rice [2]; safening agent 1.12 kg/h, butachlor 0.56 kg/h)
8%: Percent Inhibition, Rice (rice [8]; [18])
78: Safening Effect (rice [2]; safening agent 1.12 kg/h, butachlor 0.14 kg/h)
100%: Percent Inhibition, Barnyard Grass (Barnyard Grass [7]; [18]) | Percent Inhibition, Barnyard Grass (Barnyard Grass [7]; [19]) | Percent Inhibition, Barnyard Grass (Barnyard Grass [7]; [20]) | Percent Inhibition, Crabgrass (Crabgrass; [18]) | Percent Inhibition, Crabgrass (Crabgrass; [19]) | Percent Inhibition, Crabgrass (Crabgrass; [20]) | Percent Inhibition, Panicum (Panicum; [18]) | Percent Inhibition, Panicum (Panicum; [19]) | Percent Inhibition, Panicum (Panicum; [20]) | Percent Inhibition, Foxtail (Foxtail; [18]) | Percent Inhibition, Foxtail (Foxtail; [19]) | Percent Inhibition, Foxtail (Foxtail; [20])

CCCCOCN(C(=O)CCl)c1c(CC)cccc1CC [butachlor, 2-chloro-2',6'-diethyl-N-(butoxymethyl)acetanilide, reference compound]
98%: Inhibition, Rice (rice [3]; butachlor alone 1.12 kg/h)
64%: % Inhibition, Rice (rice [5]; butachlor alone 0.07 kg/h)
74%: Inhibition, Rice (rice [3]; butachlor alone 0.28 kg/h)
100%: Inhibition, Barnyard Grass (Barnyard Grass [4]; butachlor alone 0.28 kg/h) | Inhibition, Barnyard Grass (Barnyard Grass [4]; butachlor alone 1.12 kg/h) | % Inhibition, Rice (rice [5]; butachlor alone 1.12 kg/h) | % Inhibition, Barnyard Grass (Barnyard Grass [6]; butachlor alone 0.07 kg/h) | % Inhibition, Barnyard Grass (Barnyard Grass [6]; butachlor alone 0.28 kg/h) | % Inhibition, Barnyard Grass (Barnyard Grass [6]; butachlor alone 1.12 kg/h) | Percent Inhibition, Barnyard Grass (Barnyard Grass [7]; butachlor alone 2.24 kg/h) | Percent Inhibition, Barnyard Grass (Barnyard Grass [7]; butachlor alone 4.48 kg/h) | Percent Inhibition, Barnyard Grass (Barnyard Grass [7]; butachlor alone 8.96 kg/h) | Percent Inhibition, Crabgrass (Crabgrass; butachlor alone 2.24 kg/h) | Percent Inhibition, Crabgrass (Crabgrass; butachlor alone 4.48 kg/h) | Percent Inhibition, Crabgrass (Crabgrass; butachlor alone 8.96 kg/h) | Percent Inhibition, Panicum (Panicum; butachlor alone 4.48 kg/h) | Percent Inhibition, Panicum (Panicum; butachlor alone 8.96 kg/h) | Percent Inhibition, Foxtail (Foxtail; butachlor alone 2.24 kg/h) | Percent Inhibition, Foxtail (Foxtail; butachlor alone 4.48 kg/h) | Percent Inhibition, Foxtail (Foxtail; butachlor alone 8.96 kg/h)
78%: % Inhibition, Rice (rice [5]; butachlor alone 0.28 kg/h) | Percent Inhibition, Rice (rice [8]; butachlor alone 4.48 kg/h)
93%: Percent Inhibition, Rice (rice [8]; butachlor alone 8.96 kg/h)
50%: Percent Inhibition, Rice (rice [8]; butachlor alone 2.24 kg/h)
99%: Inhibition, Barnyard Grass (Barnyard Grass [4]; butachlor alone 0.07 kg/h) | Percent Inhibition, Panicum (Panicum; butachlor alone 2.24 kg/h)
31%: Inhibition, Rice (rice [3]; butachlor alone 0.07 kg/h)

From patent publication US4336389A, “2-Substituted-4-aryl-5-thiazolecarboxylic acids and their derivatives as safening agents” (Monsanto Company, priority 1978, dated 1982)
